Values of other authors in patent US20110129540A1, “Polymer of acrylic or methacrylic type comprising alpha-tocopherol grafts” (Flamel Technologies, priority 2009, published 2011).
≈ marks a conversion by molar mass, not a printed value.

Settings: no polymer

- Solubility in pure water: 50 µg/mL (≈ 123 µM)
Structure (SMILES): COc1ccccc1OCCNCC(O)COc1cccc2[nH]c3ccccc3c12 (stereo not shown) [carvedilol]
